Experimental data published in patent US9173397B2, “Formulation component” (Syngenta Limited, priority 2011, dated 2015).
Read-outs that look alike come from different tables or passages of the source.

How the values were obtained:
[1] = tested on: Tetranychus urticae; assay: Mortality of two spotted spider mite on French bean plants, abamectin with/without Morflex 560; assay type: in vivo, Tetranychus urticae (on Phaseolus vulgaris); conditions: for % mortality of Tetranychus urticae: 10 days, larva and adults averaged, Morflex 560 0.1% v/v where present
Procedure: The efficacy of tri-n-hexyltrimellitate (Morflex® 560) as an adjuvant in compositions containing abamectin was tested and compared to the efficacy of abamectin compositions which lack this type of adjuvant. The Morflex 560 was present at 0.1% v/v in the abamectin compositions. The surfactants polyoxyethylene sorbitan monooleate and an ethoxylated castor oil were also present in all the abamectin compositions tested. Two week old French bean (Phaseolus vulgaris) plants were infested with a mixed population of two spotted spider mite Tetranychus urticae. One day after infestation the plants were treated with the test compositions, with a track sprayer from the top with a rate of 200 liters per hectare. Plants were incubated in the greenhouse for 10 days and the evaluation was done on mortality against Larva and Adults, just on the lower side (untreated) of the leaves. Each experiment was replicated twice and the results were averaged. The mortality against Larva and Adults was then averaged.

[2] = tested on: Alopecurus myosuroides, Avena fatua, Lolium perenne, Setaria viridis; assay: Glasshouse weed kill, pinoxaden with/without adjuvants (Example 6); assay type: in vivo
Procedure: The efficacy of the aromatic ester tri-n-hexyltrimellitate (Morflex®560) was tested in a glasshouse against four weed species using the herbicide pinoxaden. An agrochemical composition was prepared containing 0.2% v/v of the adjuvant in a track sprayer and was applied at a volume of 200 liters per hectare. The adjuvant oils were emulsified using a small amount of the surfactant Pluronic® PE 10500, which was present in the composition at a concentration of 0.02% v/v. Pinoxaden was applied at either 7.5 or 15 grams of pesticide per hectare on each of the weed species. The weed species and their growth stage at spraying were Alopecurus myosuroides (ALOMY; growth stage 13), Avena fatua (AVEFA; growth stage 12); Lolium perenne (LOLPE; growth stage 13), Setaria viridis (SETVI; growth stage 14).
Each spray test was replicated three times. The efficacy of the herbicide was assessed visually and expressed as a percentage of the leaf area killed. Samples were assessed at time periods of 14 and 21 days following application. The results shown in table 7 below are mean averages over the two rates of pinoxaden, three replicates, four weed species and the two assessment timings, and are compared to the efficacy of pinoxaden in the absence of adjuvant and pinoxaden in the presence of the known adjuvant acetyl tributyl citrate which was used at a concentration of 0.2% w/w.

[3] = tested on: Alopecurus myosuroides, Avena fatua, Lolium perenne, Setaria viridis; assay: Glasshouse weed kill, pinoxaden with/without adjuvants (Example 8); assay type: in vivo; conditions: for adjuvant efficacy in words (pinoxaden): conclusion from Table 9
Procedure: The efficacy of the aromatic esters tri-n-hexyltrimellitate (Morflex®560) and tri-isodecylmellitate (Morflex®530) as adjuvants for pinoxaden were tested in a glasshouse against four weed species. An agrochemical composition was prepared containing 0.2% v/v of the adjuvant in a track sprayer and was applied at a volume of 200 liters per hectare. Pinoxaden was applied at either 7.5 or 15 grams per hectare on each of the weed species. The weed species and their growth stage at spraying were Alopecurus myosuroides (ALOMY; growth stage 13), Avena fatua (AVEFA; growth stage 12); Lolium perenne (LOLPE; growth stage 13), Setaria viridis (SETVI; growth stage 14).
Each spray test was replicated three times. The efficacy of the herbicide was assessed visually and expressed as a percentage of the leaf area killed. Samples were assessed at time periods of 7 and 14 days following application. The results shown in Table 9 below are mean averages over the two rates of pinoxaden, three replicates, four weed species and the two assessment timings. The results were compared to the efficacy of pinoxaden in the absence of an adjuvant and pinoxaden in the presence of either tri-2-ethylhexyl phosphate (applied at 0.5% v/v) or methyl oleate (applied at 0.2% v/v).

[4] = tested on: Chenopodium album, Abutilon theophrasti, Setaria viridis, Xanthium strumarium; assay: Glasshouse weed kill, fomesafen with/without adjuvants (Example 4); assay type: in vivo
Procedure: (§1) The efficacy of the aromatic acid ester Morflex ®560 (tri-n-hexyltrimellitate) as an adjuvant for the herbicide fomesafen was tested against four weed species in a glasshouse and compared to the well-know adjuvants, acetyl tributyl citrate and Turbocharge® which were added at concentrations of 0.2 and 0.5% w/w respectively. The adjuvant oils were emulsified using a small amount of the surfactant Pluronic® PE 10500, which was present in the composition at a concentration of 0.02% v/v.
An agrochemical composition was prepared containing 0.2% v/v of the adjuvant in a track sprayer and was applied at a volume of 200 liters per hectare. Fomesafen was applied at either 60 or 120 grams of pesticide per hectare on each of the weed species. The weed species and their growth stage at spraying were Chenopodium album (CHEAL; growth stage 14), Abutilon theophrasti (ABUTH; growth stage 12), Setaria viridis (SETVI; growth stage 13), and Xanthium strumarium (XANST; growth stage 12).
Each spray test was replicated three times. The efficacy of the herbicide was assessed visually and expressed as a percentage of the leaf area killed. Samples were assessed at time periods of 7, 14 and 21 days following application. […]

[5] = tested on: Septoria tritici; assay: Septoria tritici infection of wheat plants, isopyrazam spray with/without adjuvants; assay type: in vivo, Septoria tritici (on wheat plants); conditions: conclusion from Table 2
Procedure: The efficacy of the following aromatic acid esters tri-n-hexyltrimellitate (Morflex®560) and tri-isodecyl trimellitate (Morflex®530), as adjuvants in compositions comprising isopyrazam was tested and compared to the standard formulations (both EC and SC) of the fungicide, which lack this type of adjuvant.
Wheat plants were inoculated with the fungus Septoria tritici. Five days after inoculation the plants were sprayed with a diluted emulsion concentrate or suspension concentrate formulation of the fungicide isopyrazam at rates of 3, 10, 30 and 100 mg of the fungicide per litre of spray solution, using a laboratory track sprayer which delivered the spray at a rate of 200 liters per hectare. Spray tests were also carried out with diluted suspension concentrate additionally comprising each of the benzoate adjuvants described above. These adjuvants were added to the spray solution at a rate of 0.5% w/w, based on the quantity of spray liquor. The adjuvant oils were emulsified using a small amount of the surfactant Pluronic® PE 10500, which was present in the composition at a concentration of 0.02% v/v. The leaves of the plants were assessed visually 14 days after the spray application and the damage was expressed as the percentage of the leaf area infected.

[6] = tested on: Abutilon theophrasti, Chenopodium album, Digitaria sanguinalis, Setaria viridis; assay: Glasshouse weed kill, nicosulfuron with/without adjuvants (Example 3); assay type: in vivo
Procedure: as §1, with “nicosulfruon” for “fomesafen”, “adjuvants, tris-2-ethylhexyl phosphate and” for “adjuvants,”, “citrate” for “citrate and Turbocharge®”, “tested” for “added”, “0.2% w/w.” for “0.2 and 0.5% w/w respectively.”
An agrochemical composition was prepared containing 0.2% v/v of the adjuvant in a track sprayer, and was applied at a volume of 200 liters per hectare. Nicosulfuron was applied at a rate of either 30 or 60 grams of pesticide per hectare. The weed species and their growth stage at spraying were Abutilon theophrasti (ABUTH; growth stage 13), Chenopodium album (CHEAL; growth stage 14), Digitaria sanguinalis (DIGSA; growth stage 13), and Setaria viridis (SETVI; growth stage 13).
Each spray test replicated three times. The efficacy of the herbicide was assessed visually and expressed as a percentage of the leaf area killed. Samples were assessed at time periods of 14 and 21 days following application. […]

[7] = tested on: Polygonum convolvulus, Brachiaria platyphylla, Digitaria sanguinalis, Amaranthus tuberculatus; assay: Glasshouse weed kill, mesotrione with/without adjuvants (Example 5); assay type: in vivo
Procedure: The efficacy of the aromatic ester tri-n-hexyltrimellitate (Morflex®560) was tested in a glasshouse against four weed species using the herbicide mesotrione. An agrochemical composition was prepared containing 0.2% v/v of the adjuvant in a track sprayer and was applied at a volume of 200 liters per hectare. The adjuvant oils were emulsified using a small amount of the surfactant Pluronic® PE 10500, which was present in the composition at a concentration of 0.02% v/v. Mesotrione was applied at either 45 or 90 grams of pesticide per hectare on weeds which had been grown to the 1.3 or 1.4 leaf stage. The weed species were Polygonum convolvulus (POLCO), Brachiaria platyphylla (BRAPL) Digitaria sanguinalis (DIGSA) and Amaranthus tuberculatus (AMATU).
Each spray test was replicated three times. The efficacy of the herbicide was assessed visually and expressed as a percentage of the leaf area killed. Samples were assessed at time periods of 7, 14 and 21 days following application. The results shown in Table 6 below are mean averages over the two rates of mesotrione, three relicates, four weed species and the three assessment timings and are compared to the efficacy of mesotrione in the absence of an adjuvant, and mesotrione in the presence of the commercially available adjuvants acetyl tributyl citrate or Tween®20 which were used at concentrations of 0.2 and 0.5% w/w respectively.

[8] = tested on: Abutilon theophrasti, Chenopodium album, Digitaria sanguinalis, Setaria viridis; assay type: in vivo; conditions: for adjuvant efficacy in words (nicosulfuron): conclusion from Table 8
Procedure: The efficacy of the aromatic esters tri-n-hexyltrimellitate (Morflex®560) and tri-isodecylmellitate (Morflex®530) as adjuvants for nicosulfuron were tested in a glasshouse against four weed species. An agrochemical composition was prepared containing 0.2% v/v of the adjuvant in a track sprayer, and was applied at a volume of 200 liters per hectare. The adjuvant oils were emulsified using a small amount of the surfactant Pluronic® PE 10500, which was present in the composition at a concentration of 0.02% v/v. Nicosulfuron was applied at a rate of either 30 or 60 grams per hectare. The weed species and their growth stage at spraying were Abutilon theophrasti (ABUTH; growth stage 13), Chenopodium album (CHEAL; growth stage 14), Digitaria sanguinalis (DIGSA; growth stage 13), and Setaria viridis (SETVI; growth stage 13).
Each spray test was replicated three times. The efficacy of the herbicide was assessed visually and expressed as a percentage of the leaf area killed. Samples were assessed at time periods of 14 and 21 days following application. […] In this experiment Atplus®411F was added at the higher rate of 0.5% v/v. The other adjuvants were added at 0.2% v/v.

Molecule: Abamectin
- % mortality of Tetranychus urticae ([1]; abamectin 0.2 ppm): 0%
- % mortality of Tetranychus urticae ([1]; abamectin 0.4 ppm): 0%
- % mortality of Tetranychus urticae ([1]; abamectin 0.8 ppm): 27%
- % mortality of Tetranychus urticae ([1]; abamectin 1.5 ppm): 70%
- % mortality of Tetranychus urticae ([1]; abamectin 3 ppm): 95%

Molecule: CCc1cc(C)cc(CC)c1-c1c(OC(=O)C(C)(C)C)n2n(c1=O)CCOCC2 [Pinoxaden, reference compound]
- Mean percentage kill, mean across species ([2]; % leaf area killed, mean over pinoxaden 7.5 and 15 g/ha, 14 and 21 days, four species, adjuvant 0.2%): 11.4 C %
- Mean percentage kill, mean across species ([3]; % leaf area killed, mean over pinoxaden 7.5 and 15 g/ha, 7 and 14 days, four species, adjuvant 0.2% v/v (tri-2-ethylhexyl phosphate 0.5% v/v)): 2.3 D %

Molecule: CS(=O)(=O)NC(=O)c1cc(Oc2ccc(C(F)(F)F)cc2Cl)ccc1[N+](=O)[O-] [Fomesafen, reference compound]
- Mean percentage kill, mean across species ([4]; % leaf area killed, mean over fomesafen 60 and 120 g/ha, 7, 14 and 21 days, four species, adjuvant 0.2% (Turbocharge 0.5% w/w)): 22.5 D %

Molecule: CCCCCCOC(=O)c1ccc(C(=O)OCCCCCC)c(C(=O)OCCCCCC)c1 [Tri-n-hexyltrimellitate, Tri-n-hexyl trimellitate]
- adjuvant efficacy in words (isopyrazam, S. tritici) [5]: as efficacious as the commercial tank mix adjuvant Turbocharge®
- adjuvant efficacy in words (nicosulfuron) ([6]; conclusion from Table 4): as effective an adjuvant as either tris-2-ethylhexylphosphate or acetyl tributyl citrate
- adjuvant efficacy in words (mesotrione) ([7]; conclusion from Table 6): as effective an adjuvant as either acetyl tributyl citrate or Tween®20
- adjuvant efficacy in words (nicosulfuron) [8]: more effective an adjuvant than methyl oleate and as effective an adjuvant as Atplus®411F
- adjuvant efficacy in words (pinoxaden) ([2]; conclusion from Table 7): more effective an adjuvant than acetyl tributyl citrate
- adjuvant efficacy in words (pinoxaden) [3]: increases the efficacy of pinoxaden
- adjuvant efficacy in words (fomesafen) ([4]; conclusion from Table 5): as effective an adjuvant as Turbocharge® and better than acetyl tributyl citrate
- mortality of Tetranychus urticae ([1]; composition without abamectin, 0.1% v/v Morflex 560): no mortality was observed
- adjuvant efficacy in words (abamectin, Tetranychus urticae) ([1]; conclusion from Table 10): provided effective control of Tetranychus urticae at much lower concentrations of abamectin than are required in the absence of adjuvant

Molecule: CS(=O)(=O)c1ccc(C(=O)C2C(=O)CCCC2=O)c([N+](=O)[O-])c1 [Mesotrione, reference compound]
- Mean percentage kill, mean across species ([7]; % leaf area killed, mean over mesotrione 45 and 90 g/ha, 7, 14 and 21 days, four species, adjuvant 0.2% (Tween 20 0.5% w/w)): 34.0 B %

Molecule: COc1cc(OC)nc(NC(=O)NS(=O)(=O)c2ncccc2C(=O)N(C)C)n1 [Nicosulfuron, reference compound]
- Mean percentage kill, mean across species ([6]; % leaf area killed, mean over nicosulfuron 30 and 60 g/ha, 14 and 21 days, four species, adjuvant 0.2%): 42.5 B %
- Mean percentage kill, mean across species ([8]; % leaf area killed, mean over nicosulfuron 30 and 60 g/ha, 14 and 21 days, four species, adjuvant 0.2% v/v (Atplus 411F 0.5% v/v)): 31.1 E %

Molecule: CC(C)CCCCCCCOC(=O)c1ccc(C(=O)OCCCCCCCC(C)C)c(C(=O)OCCCCCCCC(C)C)c1 [Tri-isodecyl trimellitate]
- adjuvant efficacy in words (isopyrazam, S. tritici) [5]: as efficacious as the commercial tank mix adjuvant Turbocharge®
- adjuvant efficacy in words (nicosulfuron) [8]: increases the efficacy of the herbicide nicosulfuron
- adjuvant efficacy in words (pinoxaden) [3]: increases the efficacy of pinoxaden
